Values of other authors in US20220193441A1, “ENERGY AUGMENTATION STRUCTURES, EMITTERS OR COLLECTORS, FOR USE IN NON-INVASIVE IN-SITU PHOTOBIOMODULATION” (IMMUNOLIGHT, LLC, priority 2019, published 2022).
Blank lines part the entries; values can stand above or below the molecule they belong to.

Key:
[1] = clinical use
[2] = tested on: tumors; settings: in vivo
[3] = tested on: epidermal growth factor receptor; settings: higher UVA light doses, with versus without trimethyl psoralen

duration of skin photosensitivity [1]: approximately 2 weeks
Compound: Oc1cccc(-c2c3nc(c(-c4cccc(O)c4)c4ccc([nH]4)c(-c4cccc(O)c4)c4nc(c(-c5cccc(O)c5)c5ccc2[nH]5)CC4)C=C3)c1 [Foscan, Tetra (m-hydroxyphenyl) chlorin]

Compound: CC(=O)[O-].CC(=O)[O-].CCc1c(CC)c2cc3nc(cnc4cc(OCCOCCOCCOC)c(OCCOCCOCCOC)cc4ncc4nc(cc1[n-]2)C(CCCO)=C4C)C(C)=C3CCCO.O.[Lu+3] [Lutetium texaphryin, Motexafin lutetium]
selectivity for tumors compared to normal tissues [2]: one of the greatest reported selectivities for tumors

Compound: Cc1cc2cc3c(C)cc(=O)oc3c(C)c2o1 [trimethyl psoralen]
inhibition of 125I-EGF specific binding [3]: higher efficiency
